Laboratory results: patent publication US11767302B2, “Reagents and methods for tetrazine synthesis” (University of Delaware, priority 2020, dated 2023)
Where “and” joins values, the source holds several entries; their conditions need not be identical. Identical values can stand only once.

Assays:
[1] = Tetrazine stability in PBS buffer in ambient light at 25° C.; type: physicochemical; conditions: PBS buffer pH 7.4, ambient light, day 0-5
Protocol: Solutions (3 mL) of tetrazine 5b, 5l and 6c (400 μM) were prepared in PBS buffer (pH 7.4) in vials and stored in ambient light at 25° C. Tetrazine concentrations were determined by recording the absorbance at 518 nm (6c) and 520 nm (5b and 5l) in cuvettes in day 0, 1, 3 and 5. A solution of 6a (50 μM) was prepared in PBS buffer (pH 7.4) in vials and stored in ambient light at room temperature. Tetrazine concentration was determined by recording the absorbance at 520 nm in cuvettes at day 0, 1, 3 and 5.

[2] = Stopped-flow kinetic analysis of tetrazines with eq-5-hydroxy-trans-cyclooctene in PBS buffer at 25° C.; conditions: for k2, second order rate constant / kobs: PBS pH 7.4, 25° C.; for k2, second order rate constant: linear regression of kobs; for kobs: 0.025 mM tetrazine; for krel: relative to 5b, PBS, 25° C.
Protocol: Solutions (5 mL) of tetrazines 5b, 6c, 5l, 6a and 4f (0.050 mM) were prepared in PBS buffer (pH 7.4). Solutions (10 mL) of eq-5-hydroxy-trans-cyclooctene (0.50, 0.60, 0.70, 0.80 mM) were prepared in PBS buffer (pH 7.4). The reactions between tetrazines and trans-cyclooctene were measured under pseudo-first order conditions using SX 18MV-R stopped-flow spectrophotometer (Applied Photophysics Ltd.). Each solution of tetrazine and trans-cyclooctene were injected in equal volumes via 3 mL syringes into the stopped-flow instrument at 25° C., resulting in final concentration of 0.025 mM of tetrazines and 0.25, 0.30, 0.35, 0.40 mM trans-cyclooctene. The reaction was monitored by the decay of absorbance associated with the tetrazines (5b at 263 nm, 6c at 268 nm, 5l at 274 nm, 6a at 296 nm, 4f at 266 nm). Reaction were repeated in triplicate. With Prism software, an observed rate constant, kobs, was obtained by nonlinear regression. Second order rate constants, k2, were calculated by linear regression between kobs and final concentration of trans-cyclooctene.

[3] = Stopped-flow kinetics of 9 versus 10 with axial 5-hydroxy-trans-cyclooctene in methanol; conditions: 25° C.; for kobs, average rate constant: 0.05 mM tetrazine, 0.5 mM trans-cyclooctene
Protocol: 0.1 mM solutions (10 mL) in methanol were prepared from stock solutions of 9 (16.3 mg in 632 μL DMF, 50 mM) and 10 (10.0 mg in 422 μL MeOH, 100 mM). A 1.0 mM solution (25 mL) in methanol of axial 5-hydroxy-trans-cyclooctene 11 was also prepared from a stock solution (29.0 mg in 460 μL MeOH, 500 mM). The reaction between tetrazine and a trans-cyclooctene was measured under pseudo-first order conditions using a SX 18MV-R stopped-flow spectrophotometer (Applied Photophysics Ltd.). The 0.1 mM solution of tetrazines 9 or 10 and the 1.0 mM solution of trans-cyclooctene 11 were injected as equal volumes via syringe into the stopped-flow instrument which was held at 25° C., resulting in a final concentration of the tetrazine of 0.05 mM and a final concentration of the trans-cyclooctene of 0.5 mM. The reaction was monitored by the absorbance decay of tetrazine measured at 290 nm. Data points were collected every 0.1 second for 400 seconds and reaction was repeated in triplicate. Prism software was used to obtain the observed rate of each reaction, kobs, which was determined by nonlinear regression analysis resulting in average rate constants of 0.01033 s^−1 for 9 and 0.00975 s^−1 for 10. The relative rate, krel, of 9 versus 10 was thus determined to be 1.06.

endogenous MAGL = target: T1, endogenous MAGL (Homo sapiens, UniProt Q99685); assay: Labeling of endogenous MAGL in live cells, gel-based ABPP with TCO-TAMRA; type: cell-based
T1 sequence (Q99685 1-303): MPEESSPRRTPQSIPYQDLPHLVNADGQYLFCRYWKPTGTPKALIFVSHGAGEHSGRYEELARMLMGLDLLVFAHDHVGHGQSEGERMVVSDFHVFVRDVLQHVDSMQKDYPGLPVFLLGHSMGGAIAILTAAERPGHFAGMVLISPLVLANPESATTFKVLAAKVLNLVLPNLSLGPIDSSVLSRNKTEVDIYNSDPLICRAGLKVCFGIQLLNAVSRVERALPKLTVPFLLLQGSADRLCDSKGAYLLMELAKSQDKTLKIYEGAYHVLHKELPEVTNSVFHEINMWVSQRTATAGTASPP
Protocol: Cell culture and probe treatment. Human brain vascular pericytes were cultured in Dulbecco's Modified Eagle Medium/Nutrient Mixture F-12 (DMEM/F-12) GlutaMAX media supplemented with 5% heat-inactivated fetal bovine serum (HI FBS), 1× pericyte growth supplement (PGS), and 1× penicillin-streptomycin at 37° C. with 5% CO2 in a humidified environment. Probe treatment was performed in duplicates. Cells were plated in 6-well plates and cultured overnight in growth media. Live cells were then treated with 300 nM KML29 as a competitor compound (or DMSO as a control) at 37° C. for 1 h. Cells were subsequently treated with probe 9 (0.3 nM-3.2 μM) at 37° C. for 1 h (cells pre-treated with KML29 were treated with 32 nM of probe 9), after which the cells were washed with fresh growth media. The media were then placed with fresh media containing 2 μM of TCO-TAMRA, and the cells were incubated at 37° C. for 30 min. To quench the reaction, the media were replaced with PBS containing 100 μM tetrazine amine, and the cells were washed with cold PBS and harvested with a scrapper. The suspensions were centrifuged at 10,000×g for 1 min at 37° C., and the cell pellets were lysed in PBS containing 0.25% sodium dodecyl sulfate (SDS) with sonication. The protein concentration was measured with a bicinchoninic acid (BCA) assay kit (Thermo Scientific) and normalized. In-gel fluorescence and data analysis. The proteomes were analyzed with 1.0 mm thick 4-12% bis-tris 15-well protein gels in 2-(N-morpholino)ethanesulfonic acid (MES) buffer. The gels were scanned with a Typhoon FLA 9500 Biomolecular Imager (GE Healthcare) with the TAMRA channel with 532 nm excitation and a 575 nm long pass emission filter. To measure the total protein loading, the gels were treated with ClearPage Instant Blue (CBS Scientific) overnight, and after brief destaining with water, scanned with an Odyssey Imager (Li-COR) at the 700 nm channel. The in-gel fluorescence images were processed with ImageJ software (v1.47, NIH), and the intensities were quantified with Image Studio (v5.2, Li-COR) with background subtraction. The coomassie images were processed and quantified with the Image Studio software with background subtraction. For analysis of the cellular potency, the in-gel fluorescence intensities of the two MAGL bands were averaged, normalized with the total coomassie intensity of the corresponding sample, and fitted with a dose-response equation with Prism v7.02 (GraphPad). […] The media were then placed with fresh media containing 2 μM of TCO-TAMRA, and the cells were incubated at 37° C. for 30 min. […] The protein concentration was measured with a bicinchoninic acid (BCA) assay kit (Thermo Scientific) and normalized. In-gel fluorescence and data analysis. […]

human MAGL enzyme = target: T2, human MAGL enzyme (Homo sapiens, UniProt Q99685); assay: MAGL in vitro activity assay (7-HCA substrate, fluorescence); type: biochemical; conditions: human MAGL pre-treated 30 min at room temperature, 7-HCA substrate 1 h; read-out: IC50, inhibition of MAGL activity in vitro
T2 sequence (Q99685 1-303): T1 sequence (Q99685 1-303)
Protocol: MAGL in vitro activity assay. The MAGL in vitro activity assay was performed based on a reported protocol. Briefly, human MAGL enzyme was pre-treated with compounds at room temperature for 30 min, and subsequently incubated with 7-hydroxycoumarinyl arachidonate (7-HCA) as a substrate at room temperature for 1 h. The fluorescence signals were measured on an Envision plate reader (excitation 355 nm, emission 460 nm).

[4] = Stopped-flow kinetic analysis of MAGL tetrazines with eq-5-hydroxy-trans-cyclooctene in MeOH at 25° C.; conditions: for kobs: 0.04 mM tetrazine, 0.40 mM trans-cyclooctene, MeOH; for kobs / krel: 25° C.; for krel: relative to 12, MeOH
Protocol: Solutions (3 mL) of tetrazines 100a, 100b, 100c and 12 (0.080 mM) was prepared in MeOH. Solutions (3 mL) of eq-5-hydroxy-trans-cyclooctene (0.80 mM) were prepared in MeOH. The reactions between tetrazines and trans-cyclooctene were measured under pseudo-first order conditions using SX 18MV-R stopped-flow spectrophotometer (Applied Photophysics Ltd.). Each solution of tetrazine and trans-cyclooctene were injected in equal volumes via 3 mL syringes into the stopped-flow instrument at 25° C., resulting in final concentration of 0.04 mM of tetrazines and 0.40 mM trans-cyclooctene. The reaction was monitored by the decay of absorbance associated with the tetrazines (10a and 10b at 300 nm, 10c at 280 nm). Reaction were repeated in triplicate. With Prism software, an observed rate constant, kobs, was obtained by nonlinear regression.

Experimental log P = type: physicochemical

IC50 (human MAGL enzyme) [µM] | SMILES | k2, second order rate constant [2] [M⁻¹ s⁻¹] | kobs ([2]; TCO 0.25 mM) [s⁻¹] | kobs ([2]; TCO 0.30 mM) [s⁻¹] | kobs ([2]; TCO 0.35 mM) [s⁻¹] | kobs ([2]; TCO 0.40 mM) [s⁻¹] | krel [2] | other results
– | C=C(OCC)c1nnc(-c2ccccc2)nn1 [6a, 3-(1-ethoxyvinyl)-6-phenyl-1,2,4,5-tetrazine] | 2007 ± 101.3 | 0.52 | 0.62 | 0.70 | 0.83 | 10 | decomposition per day [1]: 0.8%
– | Cc1nnc(-c2ccc(CN)cc2)nn1 [compound 10, 3-methyl-6-(4-aminomethyl)tetrazine, reference compound] | – | – | – | – | – | – | kobs, average rate constant [3]: 0.00975 s⁻¹
– | O=C(OC(C(F)(F)F)C(F)(F)F)N1CCC(C(O)(c2ccc3c(c2)OCO3)c2ccc3c(c2)OCO3)CC1 [KML29, reference compound] | – | – | – | – | – | – | competition of probe 9 labeling of MAGL (endogenous MAGL; probe 9 32 nM 1 h after pre-treatment with KML29 300 nM 1 h): competed
– | COC(=O)CCc1nncnn1 [4f, methyl 3-(1,2,4,5-tetrazin-3-yl)propanoate] | 1591 ± 25.74 | 0.53 | 0.61 | 0.68 | 0.77 | 8.0 | –
– | COC(=O)CCc1nnc(-c2cccc(C#N)c2)nn1 [5i, methyl 3-(6-(3-cyanophenyl)-1,2,4,5-tetrazin-3-yl)propanoate] | 69.88 ± 4.824 | 0.21 | 0.24 | 0.029 | 0.032 | 0.35 | –
0.046 | C=C(OCC)c1nnc(-c2ccc(S(=O)(=O)NCC3CCN(C(=O)OC(C(F)(F)F)C(F)(F)F)CC3)cc2)nn1 [100b, 1,1,1,3,3,3-hexafluoropropan-2-yl 4-((4-(6-(1-ethoxyvinyl)-1,2,4,5-tetrazin-3-yl)phenylsulfonamido)methyl)piperidine-1-carboxylate] | – | – | – | – | – | – | kobs [4]: 0.031 s⁻¹; krel [4]: 25; fold more reactive than 100a ([4]; stopped flow kinetics with 5-hydroxyTCO): 8.6 fold
– | COC(=O)CCc1nnc(-c2ccoc2)nn1 [5l, methyl 3-(6-(furan-3-yl)-1,2,4,5-tetrazin-3-yl)propanoate] | – | – | – | – | – | – | decomposition per day [1]: 1.7%; times less reactive than 5b ([2]; reaction with 5-hydroxyTCO): 2.9 times; logP (Experimental log P): 1.2
0.012 | O=C(OC(C(F)(F)F)C(F)(F)F)N1CCC(CNS(=O)(=O)c2ccc(-c3nnc(-c4ccoc4)nn3)cc2)CC1 [100a, 1,1,1,3,3,3-hexafluoropropan-2-yl 4-((4-(6-(furan-3-yl)-1,2,4,5-tetrazin-3-yl)phenylsulfonamido)methyl)piperidine-1-carboxylate] | – | – | – | – | – | – | kobs [4]: 0.003623 s⁻¹; krel [4]: 3

SMILES | IC50 (human MAGL enzyme) [µM] | k2, second order rate constant [2] [M⁻¹ s⁻¹] | kobs ([2]; TCO 0.25 mM) [s⁻¹] | kobs ([2]; TCO 0.30 mM) [s⁻¹] | kobs ([2]; TCO 0.35 mM) [s⁻¹] | kobs ([2]; TCO 0.40 mM) [s⁻¹] | krel [2] | other results
Cc1nnc(-c2ccc(-n3ccc(C4CCN(C(=O)OC(C(F)(F)F)C(F)(F)F)CC4)n3)cc2)nn1 [compound 9, 1,1,1,3,3,3-hexafluoropropan-2-yl 4-(1-(4-(6-methyl-1,2,4,5-tetrazin-3-yl)phenyl)-1H-pyrazol-3-yl)piperidine-1-carboxylate] | 0.031 | – | – | – | – | – | – | off-target labeling in live cells (endogenous MAGL; human brain vascular pericytes, in-gel fluorescence, consistent with ABHD6): labeled an additional protein at ˜35 kDa; IC50 (endogenous MAGL; human brain vascular pericytes, probe 1 h, then 2 μM TCO-TAMRA 30 min, in-gel fluorescence, read-out: cellular IC50 of MAGL labeling): 0.008 µM; kobs, average rate constant [3]: 0.01033 s⁻¹; krel of 9 versus 10 [3]: 1.1 and 1.06
